pIC50: −log10 of the molar value. Counter-ions that a name gives are not always drawn.

For one assay, the target named is T1, ENaC (Epithelial Sodium Channel) (Mus musculus, UniProt Q61180+Q9WU38+Q9WU39).
T1 construct: Mouse kidney M−1 cells were cultivated in DMEM; endogenous in cells; host or cells: Mouse kidney M-1 cells, cultivated with dexamethasone on transwell filters
T1 sequence (Q61180 1-699): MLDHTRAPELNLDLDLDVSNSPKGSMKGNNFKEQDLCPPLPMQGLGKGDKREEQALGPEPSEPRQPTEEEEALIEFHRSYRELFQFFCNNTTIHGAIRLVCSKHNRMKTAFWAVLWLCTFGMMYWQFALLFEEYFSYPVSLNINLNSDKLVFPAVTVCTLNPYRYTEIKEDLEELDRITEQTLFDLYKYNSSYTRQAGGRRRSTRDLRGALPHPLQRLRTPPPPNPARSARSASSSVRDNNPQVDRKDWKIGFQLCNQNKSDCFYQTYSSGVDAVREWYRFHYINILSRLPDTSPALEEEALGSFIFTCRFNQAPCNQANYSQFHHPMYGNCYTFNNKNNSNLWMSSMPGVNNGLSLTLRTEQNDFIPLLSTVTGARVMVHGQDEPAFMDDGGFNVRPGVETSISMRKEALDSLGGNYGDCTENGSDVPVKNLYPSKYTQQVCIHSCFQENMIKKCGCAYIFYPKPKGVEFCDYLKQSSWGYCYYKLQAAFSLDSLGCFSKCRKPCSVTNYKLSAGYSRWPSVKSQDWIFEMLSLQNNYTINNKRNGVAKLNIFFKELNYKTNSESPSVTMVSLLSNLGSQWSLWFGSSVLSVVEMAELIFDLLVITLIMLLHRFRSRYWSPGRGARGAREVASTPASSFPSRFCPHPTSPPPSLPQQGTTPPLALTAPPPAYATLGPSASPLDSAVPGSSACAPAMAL
T1 sequence (Q9WU38 1-638): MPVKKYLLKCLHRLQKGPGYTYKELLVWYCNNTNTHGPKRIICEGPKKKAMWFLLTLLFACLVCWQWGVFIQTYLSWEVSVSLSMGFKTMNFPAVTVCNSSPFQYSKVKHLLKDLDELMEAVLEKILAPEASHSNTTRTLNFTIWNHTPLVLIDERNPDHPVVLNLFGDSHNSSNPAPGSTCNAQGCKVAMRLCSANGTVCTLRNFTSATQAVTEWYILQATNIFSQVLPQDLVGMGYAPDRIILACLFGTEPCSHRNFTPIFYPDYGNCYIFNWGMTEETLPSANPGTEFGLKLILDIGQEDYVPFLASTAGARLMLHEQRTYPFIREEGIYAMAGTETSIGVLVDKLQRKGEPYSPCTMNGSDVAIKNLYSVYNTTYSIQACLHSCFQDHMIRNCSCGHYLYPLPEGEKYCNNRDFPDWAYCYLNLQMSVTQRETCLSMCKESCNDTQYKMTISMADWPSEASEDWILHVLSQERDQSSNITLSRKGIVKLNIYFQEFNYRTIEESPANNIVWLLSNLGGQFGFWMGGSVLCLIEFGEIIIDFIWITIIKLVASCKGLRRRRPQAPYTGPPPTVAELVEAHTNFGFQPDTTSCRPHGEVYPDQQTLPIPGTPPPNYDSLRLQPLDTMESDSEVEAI
T1 sequence (Q9WU39 1-655): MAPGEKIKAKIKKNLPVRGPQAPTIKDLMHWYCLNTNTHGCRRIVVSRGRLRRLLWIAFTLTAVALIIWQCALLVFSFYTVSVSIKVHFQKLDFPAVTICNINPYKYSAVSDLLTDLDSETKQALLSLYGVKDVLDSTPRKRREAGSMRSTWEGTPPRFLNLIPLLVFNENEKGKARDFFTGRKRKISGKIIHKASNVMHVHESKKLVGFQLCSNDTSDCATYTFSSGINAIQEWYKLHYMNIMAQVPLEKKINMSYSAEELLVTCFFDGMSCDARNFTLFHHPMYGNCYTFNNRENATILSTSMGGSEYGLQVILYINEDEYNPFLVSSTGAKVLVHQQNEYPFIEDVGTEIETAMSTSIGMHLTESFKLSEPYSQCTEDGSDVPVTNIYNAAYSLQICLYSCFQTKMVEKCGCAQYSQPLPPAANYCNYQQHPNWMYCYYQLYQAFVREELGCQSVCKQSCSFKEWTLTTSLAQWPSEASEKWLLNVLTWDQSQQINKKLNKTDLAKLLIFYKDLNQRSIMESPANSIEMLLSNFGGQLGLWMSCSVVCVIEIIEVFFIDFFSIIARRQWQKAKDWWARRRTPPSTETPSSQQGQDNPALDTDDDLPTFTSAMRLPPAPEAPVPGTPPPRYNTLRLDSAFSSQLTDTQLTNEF
Nature of the assay: Ussing Chamber assay (short circuit current, amiloride sensitive I_SC). Particulars: Ussing chamber, mouse kidney M-1 cells, short circuit current, compound added to the apical solution; read-out: IC50. The class given is cell-based. The procedure, abridged:
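Mouse kidney M-1 cells grown 10–12 days on filters with 5 μM dexamethasone, measured in Caco-2 transport buffer at 37° C under voltage clamp. Compound applied apically at 3 μM or 1-3-10 μM; 3 μM amiloride added at end. Short circuit current inhibition given as percent of amiloride effect or IC50.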
As to `Nc1nc(N)c(C(=O)NC2CCC[N+](CCc3c[nH]c4ccccc34)(CCc3c[nH]c4ccccc34)C2)nc1Cl` (stereo not drawn) [Example 10.1, 3-[(3,5-Diamino-6-chloro-pyrazine-2-carbonyl)-amino]-1,1-bis-[2-(1H-indol-3-yl)-ethyl]-piperidinium chloride], the pIC50 – broadly, the negative decadic logarithm of the IC50, by convention in mol/L – was 6.85.

With `COc1cccc(CCC[N+]2(CCCc3cccc(OC)c3)CCCC(NC(=O)c3nc(Cl)c(N)nc3N)C2)c1` (stereo not drawn) [Example 10.2, 3-[(3,5-Diamino-6-chloro-pyrazine-2-carbonyl)-amino]-1,1-bis-[3-(3-methoxy-phenyl)-propyl]-piperidinium chloride], the pIC50 was 7.57.

For `Nc1nc(N)c(C(=O)N[C@@H]2CCC[N+](CCCc3c(F)cccc3F)(CCCc3c(F)cccc3F)C2)nc1Cl` [Example 10.3, 3-[(3,5-Diamino-6-chloro-pyrazine-2-carbonyl)-amino]-1,1-bis-[3-(2,6-difluoro-phenyl)-propyl]-piperidinium chloride], the pIC50 was 7.33.

Turning to `Nc1nc(N)c(C(=O)NC2CCC[N+](CCCc3ccccc3)(CCCc3ccccc3)C2)nc1Cl` (stereo not drawn) [Example 10.4, 3-[(3,5-Diamino-6-chloro-pyrazine-2-carbonyl)-amino]-1,1-bis-(3-phenyl-propyl)-piperidinium chloride], the pIC50 is 7.82.

Regarding `COc1ccc(OCC[N+]2(CCOc3ccc(OC)cc3)CCC[C@H](NC(=O)c3nc(Cl)c(N)nc3N)C2)cc1` [Example 10.6, 3-[(3,5-Diamino-6-chloro-pyrazine-2-carbonyl)-amino]-1,1-bis-[2-(4-methoxy-phenoxy)-ethyl]-piperidinium chloride], the pIC50 was 6.98.

On to `Nc1nc(N)c(C(=O)N[C@H]2CCC[N+](CCOc3ccccc3)(CCOc3ccccc3)C2)nc1Cl` [Example 10.7, 3-[(3,5-Diamino-6-chloro-pyrazine-2-carbonyl)-amino]-1,1-bis-[2-phenoxy-ethyl]-piperidinium chloride], for which the pIC50 is 6.80.

For the compound `N#Cc1ccc(CCC[N+]2(CCCc3ccc(C#N)cc3)CCC[C@H](NC(=O)c3nc(Cl)c(N)nc3N)C2)cc1` [Example 10.8, 1,1-Bis-[3-(4-cyano-phenyl)-propyl]-3-[(3,5-diamino-6-chloro-pyrazine-2-carbonyl)-amino]-piperidinium chloride], the pIC50 is 7.47.

Staying with this assay, now noted: Ussing chamber, mouse kidney M-1 cells, short circuit current; unit inferred; read-out: IC50.
For `COC(=O)COc1ccc(CCC[N+]2(CCCc3ccc(OCC(=O)O)cc3)CCCC(NC(=O)c3nc(Cl)c(N)nc3N)C2)cc1` (stereo not drawn) [Example 8, 1-[3-(4-Carboxymethoxy-phenyl)-propyl]-3-[(3,5-diamino-6-chloro-pyrazine-2-carbonyl)amino]-1-[3-(4-methoxycarbonylmethoxy-phenyl)-propyl]-piperidinium trifluoroacetate], the pIC50 is 6.78.

Turning to `COC(=O)COc1ccc(CCC[N+]2(CCCc3ccc(OCC(=O)NCCN(C)C)cc3)CCCC(NC(=O)c3nc(Cl)c(N)nc3N)C2)cc1` (stereo not drawn) [Example 8.1, 3-[(3,5-Diamino-6-chloro-pyrazine-2-carbonyl)-amino]-1-(3-{4-[(2-dimethylaminoethylcarbamoyl)-methoxy]-phenyl}-propyl)-1-[3-(4-methoxycarbonylmethoxy-phenyl)-propyl]-piperidinium chloride hydrochloride], the pIC50 is 7.07.

As for `COC(=O)COc1ccc(CCC[N+]2(CCCc3ccc(OCC(=O)NCCOCCOCCO)cc3)CCCC(NC(=O)c3nc(Cl)c(N)nc3N)C2)cc1` (stereo not drawn) [Example 8.2, 3-[(3,5-Diamino-6-chloro-pyrazine-2-carbonyl)-amino]-1-{3-[4-({2-[2-(2-hydroxy-ethoxy)ethoxy]-ethylcarbamoyl}-methoxy)-phenyl]-propyl}-1-[3-(4-methoxycarbonylmethoxy-phenyl)-propyl]-piperidinium chloride], the pIC50 is 6.43.

On to `Nc1nc(N)c(C(=O)NC2CCC[N+](CCCc3ccc(OCCOCCOCCO)cc3)(CCCc3ccc(OCCOCCOCCO)cc3)C2)nc1Cl` (stereo not drawn) [Example 9, 3-[(3,5-Diamino-6-chloro-pyrazine-2-carbonyl)-amino]-1,1-bis-[3-(4-{2-[2-(2-hydroxyethoxy)-ethoxy]-ethoxy}-phenyl)-propyl]-piperidinium chloride], for which the pIC50 was 7.02.

Consider `Nc1nc(N)c(C(=O)NC2CCC[N+](CCCc3ccc(OCCOCCOCCOCCOCCO)cc3)(CCCc3ccc(OCCOCCOCCOCCOCCO)cc3)C2)nc1Cl` (stereo not drawn) [Example 9.1, 3-[(3,5-Diamino-6-chloro-pyrazine-2-carbonyl)-amino]-1,1-bis-(3-{4-[2-(2-{2-[2-(2-hydroxy-ethoxy)-ethoxy]-ethoxy}-ethoxy)-ethoxy]-phenyl}-propyl)-piperidinium chloride], for which the pIC50 is 6.95.

Consider `CCOc1ccc(CCC[N+]2(CCCc3ccc(OCC)cc3)CCCC(NC(=O)c3nc(Cl)c(N)nc3N)C2)cc1` (stereo not drawn) [Example 9.2, 3-[(3,5-Diamino-6-chloro-pyrazine-2-carbonyl)-amino]-1,1-bis-[3-(4-ethoxy-phenyl)-propyl]-piperidinium chloride], for which the pIC50 is 7.59.

For `COCCOc1ccc(CCC[N+]2(CCCc3ccc(OCCOC)cc3)CCCC(NC(=O)c3nc(Cl)c(N)nc3N)C2)cc1` (stereo not drawn) [Example 9.3, 3-[(3,5-Diamino-6-chloro-pyrazine-2-carbonyl)-amino]-1,1-bis-{3-[4-(2-methoxy-ethoxy)-phenyl]-propyl}-piperidinium chloride], the pIC50 was 7.66.

Regarding `Nc1nc(N)c(C(=O)N[C@H]2CCC[N+](CCCc3ccc(OCCOCCOCCOCCO)cc3)(CCCc3ccc(OCCOCCOCCOCCO)cc3)C2)nc1Cl` [Example 9.4, 3-[(3,5-Diamino-6-chloro-pyrazine-2-carbonyl)-amino]-1,1-bis-{3-[4-(2-{2-[2-(2-hydroxy-ethoxy)-ethoxy]-ethoxy}-ethoxy)-phenyl]-propyl}-piperidinium chloride], the pIC50 is 7.17.

As to `CN(C)CCOc1ccc(CCC[N+]2(CCCc3ccc(OCCN(C)C)cc3)CCC[C@H](NC(=O)c3nc(Cl)c(N)nc3N)C2)cc1` [Example 9.5, 3-[(3,5-Diamino-6-chloro-pyrazine-2-carbonyl)-amino]-1,1-bis-{3-[4-(2-dimethylamino-ethoxy)-phenyl]-propyl}-piperidinium chloride dihydrochloride], the pIC50 was 7.20.

Consider `Nc1nc(N)c(C(=O)N[C@H]2CCC[N+](CCCc3ccc(OCCO)cc3)(CCCc3ccc(OCCO)cc3)C2)nc1Cl` [Example 9.6, (S)-3-[(3,5-Diamino-6-chloro-pyrazine-2-carbonyl)-amino]-1,1-bis-{3-[4-(2-hydroxyethoxy)-phenyl]-propyl}-piperidinium chloride], for which the pIC50 is 7.42.

Turning to `Nc1nc(N)c(C(=O)NC2CCC[N+](CCCc3cccc(O)c3)(CCCc3cccc(O)c3)C2)nc1Cl` (stereo not drawn) [Example 10.9, 3-[(3,5-Diamino-6-chloro-pyrazine-2-carbonyl)-amino]-1,1-bis-[3-(3-hydroxy-phenyl)propyl]-piperidinium chloride], the pIC50 is 7.89.

The values are drawn from patent US9096548B2, “Pyrazine amide compounds” (Boehringer Ingelheim International GmbH, priority 2013, dated 2015).
